Reference: ChEMBL document CHEMBL1148480, “Structure-activity studies of orexin a and orexin B at the human orexin 1 and orexin 2 receptors led to orexin 2 receptor selective and orexin 1 receptor preferring ligands” (J Med Chem, 2004)
Non-standard residues stand in square brackets, D forms with d. Residues, ends and D or L forms follow the SMILES beside them. pGlu = O=C1CC[C@@H](C(=O)O)N1; Ahx = NCCCCCC(=O)O

Molecular target: T1, Orexin/Hypocretin receptor type 1 (Homo sapiens, UniProt O43613)
T1 sequence (O43613 whole entry): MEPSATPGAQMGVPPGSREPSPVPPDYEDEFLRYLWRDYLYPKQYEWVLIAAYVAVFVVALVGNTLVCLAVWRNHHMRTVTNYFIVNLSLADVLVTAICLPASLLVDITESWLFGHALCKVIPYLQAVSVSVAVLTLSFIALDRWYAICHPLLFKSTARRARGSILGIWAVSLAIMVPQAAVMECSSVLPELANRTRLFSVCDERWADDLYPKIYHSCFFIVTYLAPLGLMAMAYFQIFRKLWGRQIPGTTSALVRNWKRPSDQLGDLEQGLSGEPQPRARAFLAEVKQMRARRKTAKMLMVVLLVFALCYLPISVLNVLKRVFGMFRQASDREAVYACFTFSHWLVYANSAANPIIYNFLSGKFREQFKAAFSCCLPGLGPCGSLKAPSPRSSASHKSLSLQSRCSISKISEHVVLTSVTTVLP
Experiment: Effective agonist concentration to human orexin receptor type 1 determined using the Xlfit program
Assay type: functional

EC50 [µM]	Compound
4.34	CC[C@H](C)[C@H](NC(=O)CNC(=O)[C@H](C)NC(=O)[C@H](C)NC(=O)[C@H](Cc1cnc[nH]1)NC(=O)[C@H](CC(N)=O)NC(=O)CNC(=O)[C@H](CO)NC(=O)[C@H](C)NC(=O)[C@H](CCC(N)=O)NC(=O)[C@H](CC(C)C)NC(=O)[C@H](CC(C)C)NC(=O)[C@H](C)NC(=O)[C@H](CCC(N)=O)NC(=O)[C@H](CC(C)C)NC(=O)[C@H](CCCNC(=N)N)NC(=O)CNC(=O)[C@H](CCC(N)=O)NC(=O)[C@H](CC(C)C)NC(=O)CN)C(=O)N[C@@H](CC(C)C)C(=O)N[C@H](C(=O)N[C@@H](CCSC)C(=O)O)[C@@H](C)O (H-GLQGRLQALLQASGNHAAGILTM-OH)
2.3	CC[C@H](C)[C@H](NC(=O)CNC(=O)[C@H](C)NC(=O)[C@H](C)NC(=O)[C@H](Cc1c[nH]cn1)NC(=O)[C@H](CC(N)=O)NC(=O)CNC(=O)[C@H](CO)NC(=O)[C@H](C)NC(=O)[C@H](CCC(N)=O)NC(=O)[C@H](CC(C)C)NC(=O)[C@H](CC(C)C)NC(=O)[C@H](CCCN=C(N)N)NC(=O)[C@H](CCC(N)=O)NC(=O)[C@H](CC(C)C)NC(=O)[C@H](CCCN=C(N)N)NC(=O)[C@H](C)NC(=O)[C@H](CCC(N)=O)NC(=O)[C@H](CC(C)C)NC(=O)CN)C(=O)N[C@@H](CC(C)C)C(=O)N[C@H](C(=O)N[C@@H](CCSC)C(N)=O)[C@@H](C)O (H-GLQARLQRLLQASGNHAAGILTM-NH2)
7.41	CC[C@H](C)[C@H](NC(=O)CNC(=O)[C@H](C)NC(=O)[C@H](C)NC(=O)[C@H](Cc1c[nH]cn1)NC(=O)[C@H](CC(N)=O)NC(=O)CNC(=O)[C@H](CO)NC(=O)[C@H](C)NC(=O)[C@H](CCC(N)=O)NC(=O)[C@H](CC(C)C)NC(=O)[C@H](CC(C)C)NC(=O)[C@H](CCCN=C(N)N)NC(=O)[C@H](CCC(N)=O)NC(=O)[C@H](CC(C)C)NC(=O)[C@H](CCCN=C(N)N)NC(=O)CNC(=O)[C@H](CCC(N)=O)NC(=O)[C@H](C)NC(=O)CN)C(=O)N[C@@H](CC(C)C)C(=O)N[C@H](C(=O)N[C@@H](CCSC)C(N)=O)[C@@H](C)O (H-GAQGRLQRLLQASGNHAAGILTM-NH2)
5.52	CC[C@H](C)[C@H](NC(=O)CNC(=O)[C@H](C)NC(=O)[C@H](C)NC(=O)[C@H](Cc1cnc[nH]1)NC(=O)[C@H](CC(N)=O)NC(=O)CNC(=O)[C@H](C)NC(=O)CNC(=O)[C@H](Cc1cnc[nH]1)NC(=O)[C@H](CC(C)C)NC(=O)[C@H](CC(C)C)NC(=O)[C@H](CCC(=O)O)NC(=O)[C@H](Cc1ccc(O)cc1)NC(=O)[C@H](CC(C)C)NC(=O)[C@H](CCCNC(=N)N)NC(=O)CCCCCNC(=O)[C@H](CC(=O)O)NC(=O)[C@@H]1CCCN1C(=O)[C@H](CC(C)C)NC(=O)[C@@H]1CCCN1C(=O)[C@@H]1CCC(=O)N1)C(=O)N[C@@H](CC(C)C)C(=O)N[C@H](C(=O)N[C@@H](CC(C)C)C(=O)O)[C@@H](C)O ([pGlu]PLPD[Ahx]RLYELLHGAGNHAAGILTL-OH)
> 1000	CC[C@H](C)[C@H](NC(=O)CNC(=O)[C@H](C)NC(=O)[C@H](C)NC(=O)[C@@H](N)Cc1cnc[nH]1)C(=O)N[C@@H](CC(C)C)C(=O)N[C@H](C(=O)N[C@@H](CC(C)C)C(N)=O)[C@@H](C)O (H-HAAGILTL-NH2)
> 1000	CC[C@H](C)[C@H](NC(=O)CNC(=O)[C@H](C)NC(=O)[C@H](C)NC(=O)[C@H](Cc1cnc[nH]1)NC(=O)[C@H](CC(N)=O)NC(=O)CNC(=O)[C@H](CO)NC(=O)[C@H](C)NC(=O)[C@H](CCC(N)=O)NC(=O)[C@H](CC(C)C)NC(=O)[C@@H](N)CC(C)C)C(=O)N[C@@H](CC(C)C)C(=O)N[C@H](C(=O)N[C@@H](CCSC)C(N)=O)[C@@H](C)O (H-LLQASGNHAAGILTM-NH2)
> 1000	CC[C@H](C)[C@H](NC(=O)[C@H](C)NC(=O)[C@H](C)NC(=O)[C@H](C)NC(=O)[C@H](Cc1cnc[nH]1)NC(=O)[C@H](CC(N)=O)NC(=O)CNC(=O)[C@H](CO)NC(=O)[C@H](C)NC(=O)[C@H](CCC(N)=O)NC(=O)[C@H](CC(C)C)NC(=O)[C@H](CC(C)C)NC(=O)[C@H](CCCNC(=N)N)NC(=O)[C@H](CCC(N)=O)NC(=O)[C@H](CC(C)C)NC(=O)[C@H](CCCNC(=N)N)NC(=O)CNC(=O)[C@H](CCC(N)=O)NC(=O)[C@H](CC(C)C)NC(=O)CN)C(=O)N[C@@H](CC(C)C)C(=O)N[C@H](C(=O)N[C@@H](CCSC)C(=O)O)[C@@H](C)O (H-GLQGRLQRLLQASGNHAAAILTM-OH)
6.95	CC[C@H](C)[C@H](NC(=O)CNC(=O)[C@H](C)NC(=O)[C@H](C)NC(=O)[C@H](Cc1c[nH]cn1)NC(=O)[C@H](CC(N)=O)NC(=O)CNC(=O)[C@H](CO)NC(=O)[C@H](C)NC(=O)[C@H](CCC(N)=O)NC(=O)[C@H](CC(C)C)NC(=O)[C@H](CC(C)C)NC(=O)[C@H](CCCN=C(N)N)NC(=O)[C@H](CCC(N)=O)NC(=O)[C@H](CC(C)C)NC(=O)[C@H](C)NC(=O)CNC(=O)[C@H](CCC(N)=O)NC(=O)[C@H](CC(C)C)NC(=O)CN)C(=O)N[C@@H](CC(C)C)C(=O)N[C@H](C(=O)N[C@@H](CCSC)C(=O)O)[C@@H](C)O (H-GLQGALQRLLQASGNHAAGILTM-OH)
> 1000	CC[C@H](C)[C@H](NC(=O)CNC(=O)[C@H](C)NC(=O)[C@H](C)NC(=O)[C@H](Cc1c[nH]cn1)NC(=O)[C@H](CC(N)=O)NC(=O)CN)C(=O)N[C@@H](CC(C)C)C(=O)N[C@H](C(=O)N[C@@H](CC(C)C)C(N)=O)[C@@H](C)O (H-GNHAAGILTL-NH2)
1.64	CC[C@H](C)[C@H](NC(=O)CNC(=O)[C@H](C)NC(=O)[C@H](C)NC(=O)[C@H](Cc1cnc[nH]1)NC(=O)[C@H](CC(N)=O)NC(=O)CNC(=O)[C@H](CO)NC(=O)[C@H](C)NC(=O)[C@H](CCC(N)=O)NC(=O)[C@H](CC(C)C)NC(=O)[C@H](CC(C)C)NC(=O)[C@H](CCCNC(=N)N)NC(=O)[C@H](CCC(N)=O)NC(=O)[C@H](CC(C)C)NC(=O)[C@H](CCCNC(=N)N)NC(=O)CNC(=O)[C@H](C)NC(=O)[C@H](CC(C)C)NC(=O)CN)C(=O)N[C@@H](CC(C)C)C(=O)N[C@H](C(=O)N[C@@H](CCSC)C(N)=O)[C@@H](C)O (H-GLAGRLQRLLQASGNHAAGILTM-NH2)
> 1000	CC[C@H](C)[C@H](NC(=O)CNC(=O)[C@H](C)NC(=O)[C@H](C)NC(=O)[C@H](Cc1c[nH]cn1)NC(=O)[C@H](CC(N)=O)NC(=O)CNC(=O)[C@H](C)NC(=O)CNC(=O)[C@H](Cc1c[nH]cn1)NC(=O)[C@H](CC(C)C)NC(=O)[C@H](CC(C)C)NC(=O)CCCCCNC(=O)[C@H](CC(=O)O)NC(=O)[C@@H]1CCCN1C(=O)[C@H](CC(C)C)NC(=O)[C@@H]1CCCN1C(=O)[C@@H]1CCC(=O)N1)C(=O)N[C@@H](CC(C)C)C(=O)N[C@H](C(=O)N[C@@H](CC(C)C)C(=O)O)[C@@H](C)O ([pGlu]PLPD[Ahx]LLHGAGNHAAGILTL-OH)
> 1000	CC[C@H](C)[C@H](NC(=O)CNC(=O)[C@H](C)NC(=O)[C@H](C)NC(=O)[C@H](Cc1c[nH]cn1)NC(=O)[C@H](CC(N)=O)NC(=O)CNC(=O)[C@H](CO)NC(=O)[C@H](C)NC(=O)[C@H](CCC(N)=O)NC(=O)[C@H](CC(C)C)NC(=O)[C@@H]1CCCN1C(=O)[C@H](CCCN=C(N)N)NC(=O)[C@H](CCC(N)=O)NC(=O)[C@H](CC(C)C)NC(=O)[C@H](CCCN=C(N)N)NC(=O)CNC(=O)[C@H](CCC(N)=O)NC(=O)[C@H](CC(C)C)NC(=O)CN)C(=O)N[C@@H](CC(C)C)C(=O)N[C@H](C(=O)N[C@@H](CCSC)C(N)=O)[C@@H](C)O (H-GLQGRLQRPLQASGNHAAGILTM-NH2)
